Reference: ChEMBL document CHEMBL5712916, “Frequent upregulation of G9a promotes RelB-dependent proliferation and survival in multiple myeloma” (Exp Hematol Oncol, 2020)
Activity calls are given as the source filed them. The rule behind the calls is not given here.

Columns and labels:
[1] = Cytotoxicity against human Bortezomib-resistant RPMI-8226 cells assessed as reduction in cell viability measured after 72 hrs by MTS assay; type: functional, cell-based; conditions: Bortezomib-resistant RPMI-8226, 72 h
[2] = system: RPMI-8226; test: Cytotoxicity against human RPMI-8226 cells assessed as reduction in cell viability measured after 72 hrs by MTS assay; type: functional, cell-based; conditions: RPMI-8226, 72 h
[3] = system: JJN-3; test: Cytotoxicity against human JJN-3 cells assessed as reduction in cell viability measured after 72 hrs by MTS assay; type: functional, cell-based; conditions: JJN-3, 72 h
[4] = system: KMS-12-BM; test: Cytotoxicity against human KMS-12-BM cells assessed as reduction in cell viability measured after 72 hrs by MTS assay; type: functional, cell-based
[5] = Cytotoxicity against human Bortezomib-resistant RPMI-8226 cells assessed as reduction in cell viability measured after 72 hrs by Celltiter-glo luminescent cell viability assay; type: functional, cell-based; conditions: Bortezomib-resistant RPMI-8226, 72 h
[6] = system: RPMI-8226; test: Cytotoxicity against human RPMI-8226 cells assessed as reduction in cell viability measured after 72 hrs by Celltiter-glo luminescent cell viability assay; type: functional, cell-based; conditions: RPMI-8226, 72 h
[7] = system: JJN-3; test: Cytotoxicity against human JJN-3 cells assessed as reduction in cell viability measured after 72 hrs by Celltiter-glo luminescent cell viability assay; type: functional, cell-based; conditions: JJN-3, 72 h
[8] = system: KMS-12-BM; test: Cytotoxicity against human KMS-12-BM cells assessed as reduction in cell viability measured after 72 hrs by Celltiter-glo luminescent cell viability assay; type: functional, cell-based
[9] = system: KMS-12-BM; test: Cytotoxicity against human KMS-12-BM cells expressing shNT assessed as reduction in cell viability measured after 72 hrs by Celltiter-glo luminescent cell viability assay; type: functional, cell-based
[10] = biological target: T1, Histone-lysine N-methyltransferase EHMT2 (Homo sapiens) (UniProt Q96KQ7); test: Inhibition of G9a in human KMS-12-BM cells assessed as reduction in H3K9me2 level at cytotoxic IC50 measured after 72 hrs by Western blot analysis; type: cell-based
T1 sequence (whole entry): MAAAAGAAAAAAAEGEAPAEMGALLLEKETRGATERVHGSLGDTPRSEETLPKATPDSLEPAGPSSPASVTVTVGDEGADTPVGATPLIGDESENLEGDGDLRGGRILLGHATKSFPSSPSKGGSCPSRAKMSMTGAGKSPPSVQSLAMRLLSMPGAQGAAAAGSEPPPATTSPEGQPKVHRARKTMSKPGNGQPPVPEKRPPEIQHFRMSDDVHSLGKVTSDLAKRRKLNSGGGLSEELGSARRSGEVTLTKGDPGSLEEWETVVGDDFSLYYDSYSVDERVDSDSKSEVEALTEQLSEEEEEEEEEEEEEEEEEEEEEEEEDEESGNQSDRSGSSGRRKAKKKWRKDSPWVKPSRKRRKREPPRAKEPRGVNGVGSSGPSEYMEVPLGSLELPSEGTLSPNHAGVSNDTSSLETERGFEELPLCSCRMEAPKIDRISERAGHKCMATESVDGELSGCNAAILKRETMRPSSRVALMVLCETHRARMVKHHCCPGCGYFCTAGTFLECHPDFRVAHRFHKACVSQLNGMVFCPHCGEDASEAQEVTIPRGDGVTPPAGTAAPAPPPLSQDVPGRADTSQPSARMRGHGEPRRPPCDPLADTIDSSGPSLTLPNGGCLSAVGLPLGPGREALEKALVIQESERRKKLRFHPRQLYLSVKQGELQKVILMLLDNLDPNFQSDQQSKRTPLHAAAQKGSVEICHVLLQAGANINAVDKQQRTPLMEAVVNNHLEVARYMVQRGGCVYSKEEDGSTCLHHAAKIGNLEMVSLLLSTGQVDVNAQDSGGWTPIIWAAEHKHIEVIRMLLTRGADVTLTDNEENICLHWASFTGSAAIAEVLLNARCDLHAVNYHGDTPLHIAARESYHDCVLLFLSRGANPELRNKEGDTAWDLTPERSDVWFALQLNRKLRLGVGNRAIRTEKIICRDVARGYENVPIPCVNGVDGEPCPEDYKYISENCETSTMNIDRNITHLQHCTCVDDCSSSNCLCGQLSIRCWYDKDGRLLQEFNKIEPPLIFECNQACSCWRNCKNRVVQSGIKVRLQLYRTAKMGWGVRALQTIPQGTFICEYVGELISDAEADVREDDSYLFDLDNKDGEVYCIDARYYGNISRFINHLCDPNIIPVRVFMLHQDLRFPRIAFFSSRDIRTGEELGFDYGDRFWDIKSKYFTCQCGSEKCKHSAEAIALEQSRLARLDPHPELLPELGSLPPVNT

[11] = system: KMS-12-BM; test: Effect on G9a expression in human KMS-12-BM cells at cytotoxic IC50 measured after 72 hrs by Western blot analysis; type: functional, cell-based
[12] = biological target: T1, Histone-lysine N-methyltransferase EHMT2 (Homo sapiens); test: Inhibition of G9a in human JJN-3 cells assessed as reduction in RelB mRNA expression at cytotoxic IC50 measured after 72 hrs by qRT-PCR analysis; type: cell-based
[13] = biological target: T1, Histone-lysine N-methyltransferase EHMT2 (Homo sapiens); test: Inhibition of G9a in human JJN-3 cells assessed as increase in BMF mRNA expression at cytotoxic IC50 measured after 72 hrs by qRT-PCR analysis; type: cell-based
[14] = system: KMS-12-BM; test: Cytotoxicity against human KMS-12-BM cells expressing shG9a assessed as reduction in cell viability measured after 72 hrs by Celltiter-glo luminescent cell viability assay; type: functional, cell-based
[15] = system: KMS-12-BM; test: Cytotoxicity against human KMS-12-BM cells assessed as decrease in number of colonies incubated for 14 days by colony formation assay; type: functional, cell-based; conditions: time 14.0 day
[16] = system: JJN-3; test: Cytotoxicity against human JJN-3 cells assessed as decrease in number of colonies incubated for 14 days by colony formation assay; type: functional, cell-based; conditions: time 14.0 day
[17] = biological target: Histone-lysine N-methyltransferase EZH2 (Homo sapiens, UniProt Q15910); test: Inhibition of EZH2 (unknown origin)
[18] = Cytotoxicity against human MSC cells assessed as reduction in cell viability measured after 72 hrs by MTS assay; type: toxicity, cell-based
[19] = Cytotoxicity against human CD38-positive cells assessed as reduction in cell viability measured after 72 hrs by Celltiter-glo luminescent cell viability assay; type: toxicity, cell-based
[20] = system: JJN-3; test: Cytotoxicity against human JJN-3 cells expressing shNT assessed as reduction in cell viability measured after 72 hrs by Celltiter-glo luminescent cell viability assay; type: functional, cell-based; conditions: JJN-3, 72 h
[21] = system: JJN-3; test: Cytotoxicity against human JJN-3 cells expressing shG9a assessed as reduction in cell viability measured after 72 hrs by Celltiter-glo luminescent cell viability assay; type: functional, cell-based; conditions: JJN-3, 72 h
[22] = system: KMS-12-BM; test: Cytotoxicity against human KMS-12-BM cells assessed as reduction in colony size incubated for 14 days by colony formation assay; type: functional, cell-based; conditions: time 14.0 day
[23] = system: JJN-3; test: Cytotoxicity against human JJN-3 cells assessed as reduction in colony size incubated for 14 days by colony formation assay; type: functional, cell-based; conditions: time 14.0 day
[24] = biological target: T1, Histone-lysine N-methyltransferase EHMT2 (Homo sapiens); test: Inhibition of G9a in human JJN-3 cells assessed as increase in Bim mRNA expression at cytotoxic IC50 measured after 72 hrs by qRT-PCR analysis; type: cell-based
[25] = biological target: T1, Histone-lysine N-methyltransferase EHMT2 (Homo sapiens); test: Inhibition of G9a in human JJN-3 cells assessed as decrease in NFKB2 expression at cytotoxic IC50 measured after 72 hrs by Western blot analysis; type: cell-based
[26] = biological target: T1, Histone-lysine N-methyltransferase EHMT2 (Homo sapiens); test: Inhibition of G9a in human JJN-3 cells assessed as decrease in p100 expression at cytotoxic IC50 measured after 72 hrs by Western blot analysis; type: cell-based
[27] = biological target: T1, Histone-lysine N-methyltransferase EHMT2 (Homo sapiens); test: Inhibition of G9a in human JJN-3 cells assessed as decrease in p52 expression at cytotoxic IC50 measured after 72 hrs by Western blot analysis; type: cell-based

Sequence of Histone-lysine N-methyltransferase EZH2 (Q15910 whole entry): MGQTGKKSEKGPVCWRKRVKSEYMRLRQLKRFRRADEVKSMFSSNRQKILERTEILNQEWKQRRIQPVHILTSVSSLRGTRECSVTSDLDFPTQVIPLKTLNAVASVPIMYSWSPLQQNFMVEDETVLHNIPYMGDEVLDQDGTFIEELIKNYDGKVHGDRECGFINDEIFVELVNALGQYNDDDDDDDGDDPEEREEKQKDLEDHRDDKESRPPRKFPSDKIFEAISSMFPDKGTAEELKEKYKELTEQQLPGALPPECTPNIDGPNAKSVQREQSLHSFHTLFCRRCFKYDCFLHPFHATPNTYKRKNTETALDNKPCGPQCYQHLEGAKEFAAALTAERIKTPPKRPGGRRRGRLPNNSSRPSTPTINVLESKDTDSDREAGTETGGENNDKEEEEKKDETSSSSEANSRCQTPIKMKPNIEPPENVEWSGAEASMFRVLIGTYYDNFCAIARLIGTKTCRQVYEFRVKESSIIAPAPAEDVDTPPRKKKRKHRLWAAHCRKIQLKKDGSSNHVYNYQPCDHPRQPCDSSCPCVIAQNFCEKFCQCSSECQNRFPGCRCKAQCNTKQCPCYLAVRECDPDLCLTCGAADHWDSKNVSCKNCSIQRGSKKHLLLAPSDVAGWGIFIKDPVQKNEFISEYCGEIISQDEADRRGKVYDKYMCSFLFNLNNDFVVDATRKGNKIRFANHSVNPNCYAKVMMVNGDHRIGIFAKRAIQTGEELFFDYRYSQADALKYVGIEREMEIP

COc1cc2c(NC3CCN(C(C)C)CC3)nc(N3CCC(F)(F)CC3)nc2cc1OCCCN1CCCC1
IC50 [1]: 12.6 µM | IC50 [2]: 26.9 µM | IC50 [3]: 19 µM | IC50 [4]: 20.3 µM | IC50 [5]: 25.4 µM | IC50 [6]: 22 µM | IC50 [7]: 5.85 µM | IC50 [8]: 10.8 µM | IC50 [9]: 23.7 µM | inhibition [10]: Active | Activity [11]: inactive | inhibition [12]: Active | inhibition [13]: Active | IC50 [14]: 58.7 µM | Activity [15]: Active | Activity [16]: Active | IC50 [17]: 5 µM | IC50 at 72 h [18]: 36.9 µM | IC50 at 72 h [19]: 6.91 µM | IC50 [20]: 6.81 µM | IC50 [21]: 17.8 µM | Activity [22]: Active | Activity [23]: Active | inhibition [24]: Active | inhibition [25]: Active | inhibition [26]: Active | inhibition [27]: Active
